These results are taken from ChEMBL document CHEMBL4043200, “Synthesis and biological evaluation of 8-aryl-2-morpholino-7-O-substituted benzo[e][1,3]oxazin-4-ones against DNA-PK, PI3K, PDE3A enzymes and platelet aggregation” (Bioorg Med Chem, 2017).

Assay [1] deals with DNA-dependent protein kinase catalytic subunit (Homo sapiens, UniProt P78527). The assay can be described thus: Inhibition of human DNA-PK catalytic subunit at 10 uM using DNA and [EPPLSQEAFADLWKK] peptide substrate by HTRF assay.
Assay [2] has as its target cGMP-inhibited 3',5'-cyclic phosphodiesterase 3A (Homo sapiens, UniProt Q14432). The assay can be described thus: Inhibition of human PDE3A at 10 uM by HTRF assay. Background: In TR-FRET formats the signal depends on donor and acceptor labels being close together.
Assay [3] concerns the target Phosphatidylinositol 4,5-bisphosphate 3-kinase catalytic subunit alpha isoform (Homo sapiens) (UniProt P42336). The experiment in a line: Inhibition of wild type PI3K-alpha (unknown origin) assessed as decrease in ATP consumption at 10 uM using phosphotidylinositol bisphosphate and ATP measured after 60 mins by Kinase-Glo reagent based luminescence assay.
In assay [4] the target is Phosphatidylinositol 4,5-bisphosphate 3-kinase catalytic subunit beta isoform (Homo sapiens) (UniProt P42338). The experiment in a line: Inhibition of wild type PI3K-beta (unknown origin) assessed as decrease in ATP consumption at 10 uM using phosphotidylinositol bisphosphate and ATP measured after 60 mins by Kinase-Glo reagent based luminescence assay. Background: Kinase-Glo measures the ATP left after a reaction by luminescence.

The target in assay [5] is Phosphatidylinositol 4,5-bisphosphate 3-kinase catalytic subunit gamma isoform (Homo sapiens) (UniProt P48736). The assay can be described thus: Inhibition of wild type PI3K-gamma (unknown origin) assessed as decrease in ATP consumption at 10 uM using phosphotidylinositol bisphosphate and ATP measured after 60 mins by Kinase-Glo reagent based luminescence assay.
For assay [6], the target named is T1, Phosphatidylinositol 4,5-bisphosphate 3-kinase catalytic subunit delta isoform (Homo sapiens) (UniProt O00329).
T1 sequence (whole entry): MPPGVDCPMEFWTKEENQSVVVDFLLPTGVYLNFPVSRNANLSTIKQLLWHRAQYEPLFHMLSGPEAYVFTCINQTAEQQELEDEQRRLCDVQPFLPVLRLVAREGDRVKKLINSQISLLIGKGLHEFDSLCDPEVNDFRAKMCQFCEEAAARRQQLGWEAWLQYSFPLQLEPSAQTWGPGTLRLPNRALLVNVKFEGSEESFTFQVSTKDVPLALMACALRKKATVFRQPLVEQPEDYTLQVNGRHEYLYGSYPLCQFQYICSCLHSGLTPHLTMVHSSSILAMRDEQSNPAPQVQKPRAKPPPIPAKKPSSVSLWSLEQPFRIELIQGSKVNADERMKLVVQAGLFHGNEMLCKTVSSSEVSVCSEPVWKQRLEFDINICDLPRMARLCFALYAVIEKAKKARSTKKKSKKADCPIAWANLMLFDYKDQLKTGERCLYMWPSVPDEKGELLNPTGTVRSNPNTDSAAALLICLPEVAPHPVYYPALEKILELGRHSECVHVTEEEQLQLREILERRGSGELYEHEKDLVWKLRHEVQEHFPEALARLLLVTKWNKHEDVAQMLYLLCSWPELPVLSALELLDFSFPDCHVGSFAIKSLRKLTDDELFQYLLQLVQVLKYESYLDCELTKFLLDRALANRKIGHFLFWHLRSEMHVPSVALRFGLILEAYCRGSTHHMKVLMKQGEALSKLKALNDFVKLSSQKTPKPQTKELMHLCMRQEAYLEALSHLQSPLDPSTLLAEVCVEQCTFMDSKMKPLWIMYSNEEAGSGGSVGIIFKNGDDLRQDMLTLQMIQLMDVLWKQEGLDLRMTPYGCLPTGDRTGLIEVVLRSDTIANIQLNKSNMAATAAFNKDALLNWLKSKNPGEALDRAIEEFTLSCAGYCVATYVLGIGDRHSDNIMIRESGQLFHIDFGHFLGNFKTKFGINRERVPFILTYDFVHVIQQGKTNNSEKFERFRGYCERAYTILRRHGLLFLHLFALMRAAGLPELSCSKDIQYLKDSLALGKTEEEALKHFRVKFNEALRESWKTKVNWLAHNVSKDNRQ
The experiment in a line: Inhibition of wild type PI3K-delta (unknown origin) assessed as decrease in ATP consumption at 10 uM using phosphotidylinositol bisphosphate and ATP measured after 60 mins by Kinase-Glo reagent based luminescence assay.

Assay [7] has as its target T2, Phosphatidylinositol 4,5-bisphosphate 3-kinase catalytic subunit delta isoform (Homo sapiens, UniProt O00329).
T2 sequence (O00329 whole entry): T1 sequence (whole entry)
The assay can be described thus: Inhibition of wild type PI3K-delta (unknown origin) assessed as decrease in ATP consumption using phosphotidylinositol bisphosphate and ATP measured after 60 mins by Kinase-Glo reagent based luminescence assay.

Structures are written as SMILES. pIC50: −log10 of the molar value.

Sequence of Phosphatidylinositol 4,5-bisphosphate 3-kinase catalytic subunit alpha isoform (Homo sapiens) (P42336 whole entry, canonical isoform): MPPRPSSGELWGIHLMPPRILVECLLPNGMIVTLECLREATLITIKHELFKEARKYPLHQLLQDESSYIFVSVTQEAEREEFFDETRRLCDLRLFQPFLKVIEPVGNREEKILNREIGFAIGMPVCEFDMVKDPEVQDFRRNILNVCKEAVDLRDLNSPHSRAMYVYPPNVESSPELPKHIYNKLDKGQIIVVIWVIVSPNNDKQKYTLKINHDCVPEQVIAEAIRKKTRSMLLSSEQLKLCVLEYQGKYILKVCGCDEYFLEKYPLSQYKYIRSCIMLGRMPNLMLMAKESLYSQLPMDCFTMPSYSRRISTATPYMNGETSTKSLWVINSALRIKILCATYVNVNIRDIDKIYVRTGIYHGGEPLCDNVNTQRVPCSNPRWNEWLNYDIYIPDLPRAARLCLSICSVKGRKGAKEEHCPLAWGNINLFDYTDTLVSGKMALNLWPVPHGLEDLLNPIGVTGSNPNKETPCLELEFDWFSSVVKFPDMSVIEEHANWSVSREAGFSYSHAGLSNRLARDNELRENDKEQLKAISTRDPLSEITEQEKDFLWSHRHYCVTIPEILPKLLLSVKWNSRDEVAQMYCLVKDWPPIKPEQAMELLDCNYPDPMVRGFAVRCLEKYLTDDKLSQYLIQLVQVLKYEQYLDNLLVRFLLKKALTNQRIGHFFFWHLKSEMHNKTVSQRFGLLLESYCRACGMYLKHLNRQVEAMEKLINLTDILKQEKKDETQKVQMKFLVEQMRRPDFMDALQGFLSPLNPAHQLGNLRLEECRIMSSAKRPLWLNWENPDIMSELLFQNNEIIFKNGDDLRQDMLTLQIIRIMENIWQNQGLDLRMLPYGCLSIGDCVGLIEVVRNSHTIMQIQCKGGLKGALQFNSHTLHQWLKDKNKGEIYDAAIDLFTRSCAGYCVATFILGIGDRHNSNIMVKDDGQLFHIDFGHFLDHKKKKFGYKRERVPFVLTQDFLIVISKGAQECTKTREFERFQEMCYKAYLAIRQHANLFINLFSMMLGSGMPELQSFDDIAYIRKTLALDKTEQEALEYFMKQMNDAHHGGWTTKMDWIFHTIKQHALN
Sequence of cGMP-inhibited 3',5'-cyclic phosphodiesterase 3A (Q14432 whole entry, canonical isoform): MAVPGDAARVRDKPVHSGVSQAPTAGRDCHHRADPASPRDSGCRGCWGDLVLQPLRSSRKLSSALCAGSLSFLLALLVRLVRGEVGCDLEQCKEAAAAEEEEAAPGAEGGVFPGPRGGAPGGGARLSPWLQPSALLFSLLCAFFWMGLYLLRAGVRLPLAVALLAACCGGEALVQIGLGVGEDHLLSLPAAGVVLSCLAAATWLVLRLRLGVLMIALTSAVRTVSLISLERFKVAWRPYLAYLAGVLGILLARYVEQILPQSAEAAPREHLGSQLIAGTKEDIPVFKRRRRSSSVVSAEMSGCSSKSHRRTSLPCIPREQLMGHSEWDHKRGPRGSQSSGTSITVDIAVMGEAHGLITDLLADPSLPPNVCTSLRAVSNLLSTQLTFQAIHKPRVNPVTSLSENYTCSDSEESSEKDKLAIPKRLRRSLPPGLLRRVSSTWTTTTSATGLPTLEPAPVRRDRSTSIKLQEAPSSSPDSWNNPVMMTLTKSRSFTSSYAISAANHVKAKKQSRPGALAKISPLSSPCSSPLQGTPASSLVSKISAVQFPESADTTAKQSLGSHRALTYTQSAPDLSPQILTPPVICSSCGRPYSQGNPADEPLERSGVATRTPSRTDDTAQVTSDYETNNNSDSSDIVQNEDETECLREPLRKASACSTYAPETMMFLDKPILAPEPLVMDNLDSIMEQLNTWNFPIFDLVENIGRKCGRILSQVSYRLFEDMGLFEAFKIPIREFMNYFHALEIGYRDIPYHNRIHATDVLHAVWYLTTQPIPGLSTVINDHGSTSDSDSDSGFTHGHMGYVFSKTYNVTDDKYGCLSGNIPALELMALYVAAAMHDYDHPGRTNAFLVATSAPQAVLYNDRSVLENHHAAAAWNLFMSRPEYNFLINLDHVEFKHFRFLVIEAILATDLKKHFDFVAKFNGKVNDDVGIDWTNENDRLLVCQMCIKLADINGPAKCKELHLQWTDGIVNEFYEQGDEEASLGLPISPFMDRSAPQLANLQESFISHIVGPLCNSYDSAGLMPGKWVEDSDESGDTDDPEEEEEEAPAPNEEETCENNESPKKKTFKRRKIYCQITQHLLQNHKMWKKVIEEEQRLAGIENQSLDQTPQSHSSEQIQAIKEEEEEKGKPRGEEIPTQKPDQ
Sequence of Phosphatidylinositol 4,5-bisphosphate 3-kinase catalytic subunit gamma isoform (Homo sapiens) (P48736 whole entry, looked up, canonical isoform): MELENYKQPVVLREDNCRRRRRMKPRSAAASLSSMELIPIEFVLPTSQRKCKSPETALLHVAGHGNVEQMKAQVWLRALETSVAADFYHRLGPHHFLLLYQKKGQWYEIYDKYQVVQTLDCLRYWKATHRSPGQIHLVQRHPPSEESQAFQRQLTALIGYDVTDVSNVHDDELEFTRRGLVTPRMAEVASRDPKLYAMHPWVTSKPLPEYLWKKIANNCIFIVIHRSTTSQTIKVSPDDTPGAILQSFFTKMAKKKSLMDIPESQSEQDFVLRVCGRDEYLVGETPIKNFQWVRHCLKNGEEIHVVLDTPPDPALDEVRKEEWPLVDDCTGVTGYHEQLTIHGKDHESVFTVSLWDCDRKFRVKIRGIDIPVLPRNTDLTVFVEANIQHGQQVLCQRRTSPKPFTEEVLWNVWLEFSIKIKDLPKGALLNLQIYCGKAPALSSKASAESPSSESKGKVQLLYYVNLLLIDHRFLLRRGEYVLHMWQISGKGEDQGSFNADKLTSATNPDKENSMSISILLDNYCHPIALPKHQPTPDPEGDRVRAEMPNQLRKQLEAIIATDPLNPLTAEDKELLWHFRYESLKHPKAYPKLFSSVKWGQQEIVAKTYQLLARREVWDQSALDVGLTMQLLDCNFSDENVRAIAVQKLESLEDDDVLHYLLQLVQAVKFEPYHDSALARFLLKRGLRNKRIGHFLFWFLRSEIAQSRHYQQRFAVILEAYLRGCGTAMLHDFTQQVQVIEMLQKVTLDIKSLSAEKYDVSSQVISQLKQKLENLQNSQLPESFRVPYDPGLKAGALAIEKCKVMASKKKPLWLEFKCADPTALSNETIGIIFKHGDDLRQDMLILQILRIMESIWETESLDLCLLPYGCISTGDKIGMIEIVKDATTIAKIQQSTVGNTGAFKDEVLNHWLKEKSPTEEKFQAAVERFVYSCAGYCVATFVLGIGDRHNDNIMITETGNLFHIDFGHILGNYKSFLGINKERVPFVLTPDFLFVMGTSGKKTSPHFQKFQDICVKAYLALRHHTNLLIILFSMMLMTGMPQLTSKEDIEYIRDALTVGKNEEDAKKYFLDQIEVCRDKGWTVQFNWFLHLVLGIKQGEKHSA
Sequence of Phosphatidylinositol 4,5-bisphosphate 3-kinase catalytic subunit beta isoform (Homo sapiens) (P42338 whole entry, looked up, canonical isoform): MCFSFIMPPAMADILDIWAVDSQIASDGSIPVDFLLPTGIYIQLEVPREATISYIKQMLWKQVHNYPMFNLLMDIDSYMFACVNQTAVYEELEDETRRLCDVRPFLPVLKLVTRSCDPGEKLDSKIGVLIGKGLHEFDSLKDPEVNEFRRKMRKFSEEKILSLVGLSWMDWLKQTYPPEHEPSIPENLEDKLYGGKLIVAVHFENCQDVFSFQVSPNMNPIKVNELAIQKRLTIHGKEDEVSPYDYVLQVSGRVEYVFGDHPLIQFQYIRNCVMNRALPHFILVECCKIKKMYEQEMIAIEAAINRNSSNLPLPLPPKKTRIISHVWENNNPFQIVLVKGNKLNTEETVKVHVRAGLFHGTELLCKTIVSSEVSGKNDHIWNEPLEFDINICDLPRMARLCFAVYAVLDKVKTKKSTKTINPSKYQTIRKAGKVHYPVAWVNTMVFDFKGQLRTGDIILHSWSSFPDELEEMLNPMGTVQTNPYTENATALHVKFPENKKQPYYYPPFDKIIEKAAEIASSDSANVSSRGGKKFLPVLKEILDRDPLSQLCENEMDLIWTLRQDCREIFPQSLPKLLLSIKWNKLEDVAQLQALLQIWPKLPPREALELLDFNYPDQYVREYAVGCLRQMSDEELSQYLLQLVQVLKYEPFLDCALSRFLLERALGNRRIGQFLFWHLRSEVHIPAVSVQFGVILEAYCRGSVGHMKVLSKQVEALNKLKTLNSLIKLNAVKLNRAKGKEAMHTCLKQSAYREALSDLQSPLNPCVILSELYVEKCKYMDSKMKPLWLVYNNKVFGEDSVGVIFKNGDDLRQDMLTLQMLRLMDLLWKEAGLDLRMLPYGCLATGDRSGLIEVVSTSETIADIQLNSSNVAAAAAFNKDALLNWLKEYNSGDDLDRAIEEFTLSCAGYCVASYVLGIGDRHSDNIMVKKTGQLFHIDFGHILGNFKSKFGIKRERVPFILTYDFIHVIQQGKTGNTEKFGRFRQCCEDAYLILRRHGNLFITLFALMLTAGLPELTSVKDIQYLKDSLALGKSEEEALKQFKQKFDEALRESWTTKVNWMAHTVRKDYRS

For `Nc1cccc(-c2c(OCc3ccccc3)ccc3c(=O)nc(N4CCOCC4)oc23)c1`, the inhibition in assay [1] is 9.1%; in assay [2], 5.1%; in assay [3] it was 31.6%; in assay [4] it was 63.1%; in assay [5], 19.8%; in assay [6] it was 63.4%.
For `O=c1nc(N2CCOCC2)oc2c(-c3cccs3)c(OCc3cccnc3)ccc12`, the inhibition in assay [1] amounted to 38.1%; in assay [2], 61.8%; in assay [3] it was 3.3%; in assay [4] it was 5.3%; in assay [5], 1.7%; in assay [6], 20.7%.
For `O=c1nc(N2CCOCC2)oc2c(-c3ccc(Cl)cc3)c(OCc3ccccc3)ccc12`, the inhibition in assay [1] worked out at 25.7%; in assay [2], 31.4%; in assay [3], 0.2%; in assay [4], 11%; in assay [5], 9.8%; in assay [6] it was 27.4%.
As for `Nc1cccc(-c2c(OCc3ccccn3)ccc3c(=O)nc(N4CCOCC4)oc23)c1`, the inhibition in assay [1] is 7.3%; in assay [2] it was 20%; in assay [3] it was 16.2%; in assay [4], 65.5%; in assay [5] it was 6.4%; in assay [6] it was 47.6%.
Take `O=c1nc(N2CCOCC2)oc2c(-c3ccsc3)c(OCc3ccncc3)ccc12`: the inhibition in assay [1] is 32.8%; in assay [2], 55.3%; in assay [3], 21.4%; in assay [4] it was 53.6%; in assay [5] it was 7.7%; in assay [6], 72.2%.
`O=c1nc(N2CCOCC2)oc2c(-c3ccccc3)c(OCCBr)ccc12`: the inhibition was 31.1% in assay [1]; 24% in assay [2]; 40.7% in assay [3]; 33.8% in assay [4]; -6.4% in assay [5]; 75.9% in assay [6].
Turning to `O=c1nc(N2CCOCC2)oc2c(-c3ccsc3)c(OCc3ccccc3)ccc12`, the inhibition stood at 46.6% in assay [1]; 38.8% in assay [2]; 4.8% in assay [3]; 20.6% in assay [4]; 39.5% in assay [6].
For the molecule `Nc1cccc(-c2c(OCc3ccncc3)ccc3c(=O)nc(N4CCOCC4)oc23)c1`, the inhibition was 10.1% in assay [1]; 43.6% in assay [2]; -5.5% in assay [4]; -5.5% in assay [5]; 9.7% in assay [6].
Take `O=c1nc(N2CCOCC2)oc2c(-c3cccc4c3Sc3ccccc3S4)c(OCc3ccccc3)ccc12`: the inhibition in assay [1] was -1.7%; in assay [2], 27.3%; in assay [4], 0.6%; in assay [6], -1%.
The corresponding values for `O=c1nc(N2CCOCC2)oc2c(-c3cccc4c3sc3ccccc34)c(OCc3ccccc3)ccc12` are 64.4%, 31.2%, 15.1% and 6.3%.
In the case of `COc1ccc(-c2c(OCc3ccncc3)ccc3c(=O)nc(N4CCOCC4)oc23)cc1`, the inhibition in assay [1] was 33.6%; in assay [2], 33.5%; in assay [3], 36.2%; in assay [4] it was 53.8%; in assay [6], 96.3%. The negative logarithm of the IC50 (pIC50) in assay [7] was 5.54.
Consider `O=c1nc(N2CCOCC2)oc2c(-c3ccsc3)c(OCc3cccnc3)ccc12`, for which the inhibition was 44% in assay [1]; 61.9% in assay [2]; -3.3% in assay [3]; 0.3% in assay [4]; 3.8% in assay [5]; 16.6% in assay [6].
As to `COc1ccc(-c2c(OCc3ccccc3)ccc3c(=O)nc(N4CCOCC4)oc23)cc1`, the inhibition in assay [1] was 40%; in assay [2], 2.8%; in assay [3] it was 0.6%; in assay [4], 19.8%; in assay [5], -0.5%; in assay [6], 65.7%.
`O=c1nc(N2CCOCC2)oc2c(-c3cccnc3)c(OCc3ccccc3)ccc12`: the inhibition was 17.2% in assay [1]; 46.9% in assay [2]; -1.7% in assay [3]; 21% in assay [4]; -2.3% in assay [5]; 34.5% in assay [6].
In the case of `O=c1nc(N2CCOCC2)oc2c(-c3ccc(Cl)cc3)c(OCCBr)ccc12`, the inhibition is 31% in assay [1]; 11.3% in assay [2]; -6.1% in assay [3]; 7.6% in assay [4]; 53.6% in assay [6].
Take `O=c1nc(N2CCOCC2)oc2c(-c3ccc(CO)cc3)c(OCc3ccccc3)ccc12`: the inhibition turned out to be 36% in assay [1]; 18.9% in assay [2]; 39.1% in assay [3]; 54.2% in assay [4]; 84.7% in assay [6]. Further, the pIC50 in assay [7] was 5.51.
On to `O=c1nc(N2CCOCC2)oc2c(-c3cccs3)c(OCc3ccncc3)ccc12`, for which the inhibition in assay [1] was 39.2%; in assay [2], 55.3%; in assay [3] it was -2.9%; in assay [4], 5.4%; in assay [5], -1.5%; in assay [6], 24%.
For the molecule `Nc1cccc(-c2c(OCc3cccnc3)ccc3c(=O)nc(N4CCOCC4)oc23)c1`, the inhibition in assay [1] is 9.8%; in assay [3], 18.4%; in assay [4], 28.2%; in assay [5] it was -6.9%; in assay [6], 41.9%.
On to `O=c1nc(N2CCOCC2)oc2c(-c3cccs3)c(OCc3ccccc3)ccc12`, for which the inhibition is 46.1% in assay [1]; 59.9% in assay [2]; -9.9% in assay [3]; -3.5% in assay [5]; 9.2% in assay [6].
For the molecule `O=c1nc(N2CCOCC2)oc2c(-c3cccc4c3oc3ccccc34)c(OCc3ccccc3)ccc12`, the inhibition is 41.5% in assay [1], 62.9% in assay [2], -4.1% in assay [5] and -2.9% in assay [6].
Consider `O=c1nc(N2CCOCC2)oc2c(-c3ccccc3)c(OCc3ccccc3)ccc12`, for which the inhibition in assay [1] was determined as 13.6%; in assay [2] it was 24%; in assay [3], 21.3%; in assay [4], 29.8%; in assay [5], 5.4%; in assay [6] it was 58.7%.
Regarding `O=c1nc(N2CCOCC2)oc2c(-c3cc4ccccc4s3)c(OCc3ccncc3)ccc12`, the inhibition is 8.7% in assay [1], 51.6% in assay [2], 0.2% in assay [5] and 27.2% in assay [6].
With `O=c1nc(N2CCOCC2)oc2c(-c3cccc4ccccc34)c(OCc3ccccc3)ccc12`, the inhibition stood at 4.07% in assay [1], 51.3% in assay [2], 4.67% in assay [4] and 9.5% in assay [6].
On to `CN1CCN(CCOc2ccc3c(=O)nc(N4CCOCC4)oc3c2-c2ccc(Cl)cc2)CC1`, for which the inhibition was 11.6% in assay [1]; 21.8% in assay [2]; 12.7% in assay [3]; 20.3% in assay [4]; 1.4% in assay [5]; 49.4% in assay [6].
As for `O=c1nc(N2CCOCC2)oc2c(-c3cc4ccccc4s3)c(OCc3ccccc3)ccc12`, the inhibition in assay [2] was 58.1%; in assay [3], -7.3%; in assay [4], 0.4%; in assay [5] it was -7.1%; in assay [6], 1.1%.

One may read the inhibition as the relative decrease from the control value, in per cent. As usually defined, the pIC50 is the IC50 on a negative log10 scale, so that one unit is a factor of ten.
